This is an account of results in patent US9518041B2, “(+)-5-(3,4-difluorophenyl)-5-[(3-methyl-2-oxopyridin-1(2H)-yl)methyl]imidazolidine-2,4-dione and drug containing same” (KAKEN PHARMACEUTICAL CO., LTD., priority 2013, dated 2016).

In brackets after ≈: the same amount, converted by molar mass. Like-named read-outs stand apart in the source and are kept apart here.

The nature of data set [1]: Solubility test in organic solvents (propylene glycol, butylene glycol). In kind it is physicochemical. Conditions: organic solvent or mixture, thermodynamic from solid, visual observation after 24 hours at room temperature. The method, then:
Under room temperature conditions, in a 0.5 mL polypropylene tube, (+)-5-(3,4-difluorophenyl)-5-[(3-methyl-2-oxopyridin-1(2H)-yl)methyl]imidazolidine-2,4-dione and (±)-5-(3,4-difluorophenyl)-5-[(3-methyl-2-oxopyridin-1(2H)-yl)methyl]imidazolidine-2,4-dione measured in advance for a suitable amount were prepared, respectively. In each tube, solvent (Propylene glycol (PG) or butylene glycol (BG)) was added with various amounts, e.g. 10 times, 20 times or 100 times amount of the test compound, and stirred with a vortex mixer. With a table ultrasonic washer set at 37° C., ultrasonication treatment was given for 10 minutes; after warming for an hour in a thermostat chamber, each were kept standing for 24 hours at room temperature. The test solutions were observed by sight to evaluate the states in accordance with the determination criterion given below.
Determination criterion consisted of the following two categories:
“Soluble”: Test compound dissolved; no undissolved substances confirmed by visual observation.
“Insoluble”: Test compound remains undissolved; undissolved substances confirmed by visual observation.

Data set [2] is described as follows: Solubility test in the 2nd fluid for the disintegration test of the Japanese Pharmacopoeia. The settings on record: pH 6.8, aqueous buffer, thermodynamic from solid; pH6.8, shaken for 2 hours. Format: physicochemical. As to the method:
Test substances (10.0 mg) were correctly weighed, and methanol was added to adjust to 10 mL. The solution was diluted by 10 times to prepare a solution of […].
In a centrifuge tube 5.0 mg of the test substance was weighed, added with 5.0 mL of the 2nd fluid for the disintegration test of the Japanese pharmacopoeia, supersonified for 3 minutes, and shaken for 2 hours thereafter. This solution was filitered with a membrane filter (0.2 μm), 500 μL the filtrate was measured, 500 μL of acetonitrile was added, and fully stirred to obtain the sample solution.
To 250 mL of 0.2 mol/L potassium dihydrogenphosphate aqueous solution, 118 mL of 0.2 mol/L sodium hydroxide aqueous solution and water was added to adjust to 1000 mL.
Using a high performance liquid chromatography, each of the sample solution for a calibration curve and sample solution for solubility measurement is measured twice to calculate an average area for each.
Based on the average area obtained in the above mentioned method, using an equation below to calculate a solubility. Solubility in the 2nd fluid for the disintegration test of the Japanese pharmacopoeia(μg/mL)=((P×2)/S)×100
S: Average area on the sample solution for a calibration curve
P: Average area on the sample solution for solubility measurement

For the compound `Cc1cccn(CC2(c3ccc(F)c(F)c3)NC(=O)NC2=O)c1=O` (racemic) [(±)-5-(3,4-difluorophenyl)-5-[(3-methyl-2-oxopyridin-1(2H)-yl)methyl]imidazolidine-2,4-dione], the solubility (usually how much of the substance goes into solution per volume) at 24 h in data set [1] (BG, 20 times amount of the test compound, read-out: Solubility in butylene glycol (BG), 20 times amount) is under 50000 µg/mL; in data set [1] (BG, 100 times amount of the test compound, read-out: Solubility in butylene glycol (BG), 100 times amount) it was over 10000 µg/mL; in data set [1] (PG, 10 times amount of the test compound, read-out: Solubility in propylene glycol (PG), 10 times amount), under 50000 µg/mL; in data set [1] (PG, 20 times amount of the test compound, read-out: Solubility in propylene glycol (PG), 20 times amount), under 50000 µg/mL; in data set [1] (PG, 100 times amount of the test compound, read-out: Solubility in propylene glycol (PG), 100 times amount) it was over 10000 µg/mL. For the same compound, in data set [2], the solubility at 2 h worked out at 45 µg/mL (≈ 0.135 mM).
